In brackets after ≈: the same amount, converted by molar mass.
System: MCF7
Test: Cytotoxicity against Homo sapiens (human) MCF7 cells after 48 hr by SRB assay
Format: functional, cell-based
Conditions: MCF7, 48 h

| SMILES | IC50 [µg/mL] |
| --- | --- |
| N#Cc1c(-c2ccccc2)cc(Cl)n2c1nc1ccc(C(=O)O)cc12 | 3.58 (≈ 10.3 µM) |
| Cc1c(CCCl)c(Cl)n2c(nc3ccc(Cl)cc32)c1C#N | 7.09 (≈ 20.9 µM) |
| Cc1c(CCCl)c(Cl)n2c(nc3ccc(C(=O)O)cc32)c1C#N | 9.07 (≈ 26 µM) |
| Cc1cc(N2CCN(c3ccccc3F)CC2)n2c(nc3ccc(Cl)cc32)c1C#N | 5.72 (≈ 13.6 µM) |
| Cc1cc(N2CCN(c3ccccc3F)CC2)n2c(nc3ccc(C(=O)O)cc32)c1C#N | 12.6 (≈ 29.3 µM) |
| N#Cc1c(-c2ccccc2)cc(N2CCN(c3ccccc3F)CC2)n2c1nc1ccc(Cl)cc12 | 10.4 (≈ 21.6 µM) |
| N#Cc1c(-c2ccccc2)cc(N2CCN(c3ccccc3F)CC2)n2c1nc1ccc(C(=O)O)cc12 | 17.6 (≈ 35.9 µM) |
| Cc1c(CCN2CCN(c3ccccc3F)CC2)c(N2CCN(c3ccccc3F)CC2)n2c(nc3ccc(Cl)cc32)c1C#N | 14 (≈ 22.4 µM) |
| Cc1c(CCN2CCN(c3ccccc3F)CC2)c(N2CCN(c3ccccc3F)CC2)n2c(nc3ccc(C(=O)O)cc32)c1C#N | 9.9 (≈ 15.6 µM) |
| Cc1cc(=O)n2c([nH]c3ccc(Cl)cc32)c1C#N | 3.43 (≈ 13.3 µM) |
| Cc1cc(=O)n2c([nH]c3ccc(C(=O)O)cc32)c1C#N | 14.7 (≈ 55 µM) |
| N#Cc1c(-c2ccccc2)cc(=O)n2c1[nH]c1ccc(Cl)cc12 | 3.58 (≈ 11.2 µM) |
| N#Cc1c(-c2ccccc2)cc(=O)n2c1[nH]c1ccc(C(=O)O)cc12 | 3.99 (≈ 12.1 µM) |
| Cc1c(CCO)c(=O)n2c([nH]c3ccc(Cl)cc32)c1C#N | 14.6 (≈ 48.5 µM) |
| Cc1c(CCO)c(=O)n2c([nH]c3ccc(C(=O)O)cc32)c1C#N | 10.5 (≈ 33.9 µM) |
| Cc1cc(Cl)n2c(nc3ccc(Cl)cc32)c1C#N | 8.61 (≈ 31.2 µM) |
| Cc1cc(Cl)n2c(nc3ccc(C(=O)O)cc32)c1C#N | 12.8 (≈ 44.9 µM) |
| N#Cc1c(-c2ccccc2)cc(Cl)n2c1nc1ccc(Cl)cc12 | 3.89 (≈ 11.5 µM) |

From ChEMBL document CHEMBL3045437, “Synthesis of potential anticancer derivatives of pyrido[1,2-a]benzimidazoles” (Med Chem Res, 2012)
